Test system: 299254-011-R-J1-PDC complex spheroid viability
Assay: Anticancer human tumor 299254-011-R-J1-PDC patient-derived melanoma cell line growth inhibition [POLQ]
Conditions: for IC50: curve of first compound; for viability, T/C: stronger effect = lower value
How it was run: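 PDC + HUVEC + MSC complex spheroids; POLQ inhibitors ± partner drugs; top conc. at/near clinical Cmax, else 10 microM (SN-38 1 microM), half-log dilutions; 37 degrees C, 5% CO2.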

[1] = second compound 0.0316 µM, first compound 0.00316 µM
[2] = second compound 0.0316 µM, first compound 0.01 µM
[3] = second compound 0.0316 µM, first compound 0.0316 µM
[4] = second compound 0.0316 µM, first compound 0.1 µM
[5] = second compound 0.0316 µM, first compound 0.316 µM
[6] = second compound 0.0316 µM, first compound 1 µM
[7] = second compound 0.1 µM, first compound 0.00316 µM
[8] = second compound 0.1 µM, first compound 0.01 µM
[9] = second compound 0.1 µM, first compound 0.0316 µM
[10] = second compound 0.1 µM, first compound 0.1 µM
[11] = second compound 0.1 µM, first compound 0.316 µM
[12] = second compound 0.1 µM, first compound 1 µM
[13] = second compound 0.316 µM, first compound 0.00316 µM
[14] = second compound 0.316 µM, first compound 0.01 µM
[15] = second compound 0.316 µM, first compound 0.0316 µM
[16] = second compound 0.316 µM, first compound 0.1 µM
[17] = second compound 0.316 µM, first compound 0.316 µM
[18] = second compound 0.316 µM, first compound 1 µM
[19] = second compound 1 µM, first compound 0.00316 µM
[20] = second compound 1 µM, first compound 0.01 µM
[21] = second compound 1 µM, first compound 0.0316 µM
[22] = second compound 1 µM, first compound 0.1 µM
[23] = second compound 1 µM, first compound 0.316 µM
[24] = second compound 1 µM, first compound 1 µM
[25] = second compound 3.16 µM, first compound 0.00316 µM
[26] = second compound 3.16 µM, first compound 0.01 µM
[27] = second compound 3.16 µM, first compound 0.0316 µM
[28] = second compound 3.16 µM, first compound 0.1 µM
[29] = second compound 3.16 µM, first compound 0.316 µM
[30] = second compound 3.16 µM, first compound 1 µM
[31] = second compound 10 µM, first compound 0.00316 µM
[32] = second compound 10 µM, first compound 0.01 µM
[33] = second compound 10 µM, first compound 0.0316 µM
[34] = second compound 10 µM, first compound 0.1 µM
[35] = second compound 10 µM, first compound 0.316 µM
[36] = second compound 10 µM, first compound 1 µM
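Also: spheroids exposed to drugs for one week before measurement.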
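For viability, T/C in this document: percent viability relative to DMSO vehicle control taken as 100%.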

C=CCn1c(=O)c2cnc(Nc3ccc(N4CCN(C)CC4)cc3)nc2n1-c1cccc(C(C)(C)O)n1 + Cc1cccc(N(C)C(=O)C2C(O)CCN2c2nc(C)cc(C(F)(F)F)c2C#N)c1
IC50 (second compound 0.0316 µM): > 1 µM | IC50 (second compound 0.1 µM): > 1 µM | IC50 (second compound 0.316 µM): > 1 µM | IC50 (second compound 1 µM): > 1 µM | IC50 (second compound 3.16 µM): > 1 µM | IC50 (second compound 10 µM): > 1 µM | viability, T/C [1]: 98.3% | viability, T/C [2]: 119% | viability, T/C [3]: 96% | viability, T/C [4]: 116% | viability, T/C [5]: 103% | viability, T/C [6]: 62.1% | viability, T/C [7]: 101% | viability, T/C [8]: 103% | viability, T/C [9]: 106% | viability, T/C [10]: 103% | viability, T/C [11]: 90.2% | viability, T/C [12]: 67.4% | viability, T/C [13]: 111% | viability, T/C [14]: 108% | viability, T/C [15]: 99.7% | viability, T/C [16]: 108% | viability, T/C [17]: 108% | viability, T/C [18]: 64.2% | viability, T/C [19]: 117% | viability, T/C [20]: 98.6% | viability, T/C [21]: 110% | viability, T/C [22]: 99.8% | viability, T/C [23]: 90.5% | viability, T/C [24]: 57.8% | viability, T/C [25]: 104% | viability, T/C [26]: 102% | viability, T/C [27]: 113% | viability, T/C [28]: 103% | viability, T/C [29]: 97.2% | viability, T/C [30]: 67% | viability, T/C [31]: 105% | viability, T/C [32]: 109% | viability, T/C [33]: 89.4% | viability, T/C [34]: 96.5% | viability, T/C [35]: 88.2% | viability, T/C [36]: 59.3%

CC[C@@]1(O)C(=O)OCc2c1cc1n(c2=O)Cc2cc3c(CN(C)C)c(O)ccc3nc2-1 + Cc1cccc(N(C)C(=O)C2C(O)CCN2c2nc(C)cc(C(F)(F)F)c2C#N)c1
IC50 (second compound 0.0316 µM): > 0.1 µM | IC50 (second compound 0.1 µM): > 0.1 µM | IC50 (second compound 0.316 µM): > 0.1 µM | IC50 (second compound 1 µM): > 0.1 µM | IC50 (second compound 3.16 µM): > 0.1 µM | IC50 (second compound 10 µM): > 0.1 µM | viability, T/C (second compound 0.0316 µM, first compound 0.000316 µM): 101% | viability, T/C (second compound 0.0316 µM, first compound 0.001 µM): 100% | viability, T/C [1]: 95.6% | viability, T/C [2]: 104% | viability, T/C [3]: 117% | viability, T/C [4]: 81% | viability, T/C (second compound 0.1 µM, first compound 0.000316 µM): 104% | viability, T/C (second compound 0.1 µM, first compound 0.001 µM): 98.6% | viability, T/C [7]: 97% | viability, T/C [8]: 113% | viability, T/C [9]: 113% | viability, T/C [10]: 84.1% | viability, T/C (second compound 0.316 µM, first compound 0.000316 µM): 110% | viability, T/C (second compound 0.316 µM, first compound 0.001 µM): 115% | viability, T/C [13]: 103% | viability, T/C [14]: 120% | viability, T/C [15]: 116% | viability, T/C [16]: 80.9% | viability, T/C (second compound 1 µM, first compound 0.000316 µM): 111% | viability, T/C (second compound 1 µM, first compound 0.001 µM): 112% | viability, T/C [19]: 100% | viability, T/C [20]: 123% | viability, T/C [21]: 99.2% | viability, T/C [22]: 90.5% | viability, T/C (second compound 3.16 µM, first compound 0.000316 µM): 108% | viability, T/C (second compound 3.16 µM, first compound 0.001 µM): 115% | viability, T/C [25]: 89.1% | viability, T/C [26]: 106% | viability, T/C [27]: 119% | viability, T/C [28]: 89.6% | viability, T/C (second compound 10 µM, first compound 0.000316 µM): 94.9% | viability, T/C (second compound 10 µM, first compound 0.001 µM): 102% | viability, T/C [31]: 90.8% | viability, T/C [32]: 97% | viability, T/C [33]: 95.3% | viability, T/C [34]: 69.7%

CCc1c2c(nc3ccc(O)cc13)-c1cc3c(c(=O)n1C2)COC(=O)[C@]3(O)CC + Cc1cccc(N(C)C(=O)C2C(O)CCN2c2nc(C)cc(C(F)(F)F)c2C#N)c1
IC50 (second compound 0.0316 µM): > 1 µM | IC50 (second compound 0.1 µM): > 1 µM | IC50 (second compound 0.316 µM): > 1 µM | IC50 (second compound 1 µM): > 1 µM | IC50 (second compound 3.16 µM): > 1 µM | IC50 (second compound 10 µM): > 1 µM | viability, T/C [1]: 95.9% | viability, T/C [2]: 79.2% | viability, T/C [3]: 72.9% | viability, T/C [4]: 67.8% | viability, T/C [5]: 62.5% | viability, T/C [6]: 53.7% | viability, T/C [7]: 92.8% | viability, T/C [8]: 95.7% | viability, T/C [9]: 65.3% | viability, T/C [10]: 67.6% | viability, T/C [11]: 72.8% | viability, T/C [12]: 56.4% | viability, T/C [13]: 104% | viability, T/C [14]: 86.3% | viability, T/C [15]: 75.3% | viability, T/C [16]: 76.2% | viability, T/C [17]: 56.7% | viability, T/C [18]: 53% | viability, T/C [19]: 111% | viability, T/C [20]: 88.5% | viability, T/C [21]: 75.1% | viability, T/C [22]: 64.7% | viability, T/C [23]: 68.6% | viability, T/C [24]: 49.6% | viability, T/C [25]: 112% | viability, T/C [26]: 79% | viability, T/C [27]: 72.1% | viability, T/C [28]: 64.8% | viability, T/C [29]: 71.6% | viability, T/C [30]: 60% | viability, T/C [31]: 88.6% | viability, T/C [32]: 69.3% | viability, T/C [33]: 57.9% | viability, T/C [34]: 81.5% | viability, T/C [35]: 60.1% | viability, T/C [36]: 49.7%

From PubChem BioAssay AID1963849 (Molecular Pharmacology Branch, DTP, NCI, 2024)
